From patent US20070054902A1, “Isoxazole derivatives as peroxisome proliferator-activated receptors agonists” (SHIONOGI & CO., LTD., priority 2003, published 2007)

What was measured:
human PPARδ (hPPARδ) = molecular target: T1, human PPARδ (hPPARδ) (Homo sapiens, UniProt Q03181); assay: Test for transcriptional activity of PPARδ (GAL4 chimeric transcription-factor reporter assay in CHO cells); type: cell-based; conditions: GAL4-hPPARδ LBD chimeric reporter in CHO cells
T1 construct: δ:aa 139-C-end; expressed in transfected cells
T1 sequence (Q03181 139-441 limits assumed): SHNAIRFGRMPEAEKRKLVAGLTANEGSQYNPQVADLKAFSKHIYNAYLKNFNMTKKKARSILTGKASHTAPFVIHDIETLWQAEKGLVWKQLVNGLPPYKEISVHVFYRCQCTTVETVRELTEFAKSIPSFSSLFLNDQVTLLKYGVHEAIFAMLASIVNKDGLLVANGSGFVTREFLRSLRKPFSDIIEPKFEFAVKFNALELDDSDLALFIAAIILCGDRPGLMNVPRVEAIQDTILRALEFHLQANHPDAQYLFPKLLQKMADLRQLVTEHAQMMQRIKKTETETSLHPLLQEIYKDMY
Description: A chimeric transcription-factor assay, which is commonly used to detect nuclear receptor activity, was employed to measure PPAR transcriptional activity. Specifically, two plasmids, one that expresses the fusion protein of DNA binding domain of yeast transcription factor GAL4 and a ligand binding domain of a receptor, and a reporter plasmid were transiently transfected to CHO cells. The activity of the promoter containing a recognition sequence of GAL4 coded on the reporter plasmid was used as a parameter to estimate the activity of the receptor.
Then, each obtained cDNA-fragment was subcloned into pBIND vector (Promega) to construct a plasmid expressing the fusion protein with DNA binding domain of yeast transcription factor. GAL4. pG51uc vector (Promega) was used as a reporter plasmid.
Cell culturing and transfection: CHO cells were cultured in 10% FBS-αMEM. With a 96-well plate (Costar), CHO cells, that were dispersed with trypsin treatment, 20000 cells per well and the two plasmids obtained by the above procedure, 25 ng per well, were transfected with FuGene Reagent (Roche) by following the instruction of the manufacture.
Measurement of the transcriptional activity: CHO cells 100 μl per well, which were transfected as above, were dispensed into the wells in which a test compound dissolved in DMSO 0.5 μl was spotted in advance. After the cells and a test compound were cultured together for 24 hours in a CO2 incubator, the luciferase activity was measured by adding luciferase substrates, PicaGene LT2.0 (Toyo ink) 100 μl per well. LUMINOUS CT9000D (DIA-IATRON) is used to measure the activity.

CYP2C9 = molecular target: T2, CYP2C9 (Homo sapiens, UniProt P11712); assay: Test for inhibition of CYP2C9 enzyme (tolbutamide 4-position hydration, human liver microsomes); type: in vitro ADME; conditions: pH 7.4, probe tolbutamide (14C labeled), 5 µM, human liver microsomes 0.25 mg/ml, 5 μM tolbutamide, 37° C., solvent control = 100%, read-out: Residual activity (%) CYP2C9
T2 construct: the protein concentration, 0.25 mg/ml (human liver microsomes, 15 pol, Lot. 210296, XenoTech); tissue XenoTech Lot; 210296; host or cells: human liver microsomes (pooled)
Method: The reaction condition is as below. A substrate, 5 μM Tolbutamide (14C labeled compound); the reaction time, 30 minutes; the reaction temperature, 37° C.; the protein concentration, 0.25 mg/ml (human liver microsomes, 15 pol, Lot. 210296, XenoTech).
To the HEPES Buffer (pH 7.4), is added the protein (human liver microsomes), a drug solution and a substrate with the composition as the above. NADPH, which is a coenzyme of the reaction, is added thereto to start the reaction. After reacting for the fixed hours, 2N hydrochloric acid solution is added thereto and the reaction is stopped by removing protein. The remaining substrate drug and the generating metabolite are extracted with chloroform. The solvent is removed and the residue is redissolved in methanol. This solution was spotted on TLC, developed with chloroform:methanol: acetic acid=90:10:1, contacted on the imaging plate for about 14-20 hours and analyzed by BAS2000. As to the generation activity of the metabolite, Tolbutamide 4-potition hydration body, the activity in case that the solvent dissolving a drug is added to the reaction assay is used as a control (100%). The residual activity (%) in case that the test drug solution is added to the reaction is calculated.

[1] = 24 hours, concentration showing 1/2 of maximum luciferase activity (Table 166)

T2 sequence (P11712 whole entry): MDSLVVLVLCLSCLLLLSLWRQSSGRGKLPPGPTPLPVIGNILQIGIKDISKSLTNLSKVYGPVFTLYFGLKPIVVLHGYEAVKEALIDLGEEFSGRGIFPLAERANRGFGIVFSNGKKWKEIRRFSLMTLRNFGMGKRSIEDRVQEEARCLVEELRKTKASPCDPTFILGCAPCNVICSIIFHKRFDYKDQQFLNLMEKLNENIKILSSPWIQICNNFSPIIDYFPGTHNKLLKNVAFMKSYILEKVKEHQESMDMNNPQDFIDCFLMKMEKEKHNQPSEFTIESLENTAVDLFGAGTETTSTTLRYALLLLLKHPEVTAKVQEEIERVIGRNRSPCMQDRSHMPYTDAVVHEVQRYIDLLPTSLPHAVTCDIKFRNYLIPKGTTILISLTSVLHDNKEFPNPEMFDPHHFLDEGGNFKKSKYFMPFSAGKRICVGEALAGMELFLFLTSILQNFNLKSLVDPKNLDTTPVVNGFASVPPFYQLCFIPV

COCc1c(COc2ccc(OCC(=O)O)c(C)c2)noc1-c1ccc(C(F)(F)F)cc1 [α-5-1, {4-[4-Methoxymethyl-5-(4-trifluoromethylphenyl)-isoxazole-3-ylmethoxy]-2-methyl-phenoxy}-acetic acid]
melting point: 105 to 107 °C

COC(=O)COc1ccc(C(=O)CCc2noc(-c3ccc(C(F)(F)F)cc3)c2C)cc1C [α-6-3-1, (2-Methyl-4-{3-[4-methyl-5-(4-trifluoromethylphenyl)-isoxazole-3-yl]-propionyl}-phenoxy)-acetic acid methyl ester]
melting point: 133 to 134 °C

Cc1cc(C(=O)CCc2noc(-c3ccc(C(F)(F)F)cc3)c2C)ccc1OCC(=O)O [α-6-4-1, (2-Methyl-4-{3-[4-methyl-5-(4-trifluoromethylphenyl)-isoxazole-3-yl]-propionyl}-phenoxy)-acetic acid]
melting point: 191 to 194 °C

Cc1cc(SCc2noc(-c3ccc(C(F)(F)F)cc3)c2C)ccc1Cc1noc(=O)[nH]1 [α-7-3-1, 3-[2-methyl-4-[4-methyl-5-(4-trifluoromethylphenyl)isoxazole-3-ylmethylsulfanil]benzil]-4H-[1,2,4]oxadiazole-5-on]
melting point: 203 to 204.5 °C
EC50 (human PPARδ (hPPARδ); [1]): 9.5 nM

Cc1cc(SCc2noc(-c3ccc(C(F)(F)F)cc3)c2C)ccc1OCC(=O)O [β-1-3]
melting point: 129 to 131 °C
EC50 (human PPARδ (hPPARδ); [1]): 9.9 nM

Cc1cc(SCc2noc(-c3ccc(Cl)cc3)c2C)ccc1OCC(=O)O [β-1-8]
melting point: 157 to 159 °C
EC50 (human PPARδ (hPPARδ); [1]): 11 nM

COCc1c(CSc2ccc(OCC(=O)O)c(C)c2)noc1-c1ccc(C(F)(F)F)cc1 [β-1-15]
melting point: 105 to 107 °C
EC50 (human PPARδ (hPPARδ); [1]): 1.5 nM

Cc1c(COc2ccc(C=CC(=O)O)cc2F)noc1-c1ccc(C(F)(F)F)cc1 [β-2-15, 3-{3-Fluoro-4-[4-methyl-5-(4-trifluoromethylphenyl)isoxazole-3-ylmethoxy]phenyl}acrylic acid]
melting point: 261 to 262.5 °C

Cc1cc(SCc2cc(-c3ccc(C(F)(F)F)cc3)on2)ccc1/C=C/C(=O)O [β-2-38]
activity at 30 min (CYP2C9): 47%
melting point: 179.5 to 181.5 °C
EC50 (human PPARδ (hPPARδ); 24 hours (Table 168)): 35 nM

Cc1c(COc2ccc3c(ccn3CC(=O)O)c2)noc1-c1ccc(C(F)(F)F)cc1 [β-3-1, {5-[4-Methyl-5-(4 trifluoromethylphenyl)isoxazole-3-ylmethoxy]indole-1-yl}acetic acid]
melting point: 159 to 160 °C

Cc1c(CSc2ccc3c(ccn3CC(=O)O)c2)noc1-c1ccc(C(F)(F)F)cc1 [β-4-1, {5-[4-Methyl-5-(4-trifluoromethylphenyl)isoxazole-3-ylmethylsulfanil]indole-1-yl}acetic acid]
melting point: 139 to 141 °C
EC50 (human PPARδ (hPPARδ); [1]): 16 nM

Cc1c(CSc2ccc(-c3sccc3C(=O)O)cc2)noc1-c1ccc(C(F)(F)F)cc1 [β-5-1, 2-{4-[4-Methyl-5-(4-trifluoromethylphenyl)isoxazole-3-ylmethylsulfanil]phenyl}thiophene-3-carboxylic acid]
melting point: 139 to 141 °C
EC50 (human PPARδ (hPPARδ); [1]): 14 nM
